The values that follow are results of earlier work, collected in patent US20170014380A1, “Vildagliptin Formulation Process Under Inert Gas Atmosphere” (Sanovell IIac Sanayi Ve Ticaret Anonim Sirketi, priority 2014, published 2017).

Each structure is given as a SMILES string.

On to `N#C[C@@H]1CCCN1C(=O)CN[C@@]12C[C@@H]3C[C@@H](CC(O)(C3)C1)C2` [Vildagliptin, (S)-{[(3-hydroxyadamantan-1-yl)amino]acetyl}pyrrolidine-2-carbonitril], for which, for the setting “in organic polar solvents”, the “solubility in organic polar solvents” value is “soluble”. Also, the solubility in water entry (in water) is given as “soluble”.
